Literature values in publication PMC6428196 (Psychopharmacology, 2018).

Legend:
[1] = in vivo
[2] = human, in vivo, sc
baboons = settings: ref Holtyn et al. 2017

| Brain penetration after systemic administration [1] | Bioavailability [2] [%] | Structure (SMILES) | Drinking (baboons) |
| --- | --- | --- | --- |
| penetrate the brain | 55 | CCCCCCCCCCCCCCCC(=O)N[C@@H](CCC(=O)NCCCC[C@H](NC(=O)[C@H](C)NC(=O)[C@H](C)NC(=O)[C@H](CCC(N)=O)NC(=O)CNC(=O)[C@H](CCC(=O)O)NC(=O)[C@H](CC(C)C)NC(=O)[C@H](Cc1ccc(O)cc1)NC(=O)[C@H](CO)NC(=O)[C@H](CO)NC(=O)[C@@H](NC(=O)[C@H](CC(=O)O)NC(=O)[C@H](CO)NC(=O)[C@@H](NC(=O)[C@H](Cc1ccccc1)NC(=O)[C@@H](NC(=O)CNC(=O)[C@H](CCC(=O)O)NC(=O)[C@H](C)NC(=O)[C@@H](N)Cc1cnc[nH]1)[C@@H](C)O)[C@@H](C)O)C(C)C)C(=O)N[C@@H](CCC(=O)O)C(=O)N[C@@H](Cc1ccccc1)C(=O)N[C@H](C(=O)N[C@@H](C)C(=O)N[C@@H](Cc1c[nH]c2ccccc12)C(=O)N[C@@H](CC(C)C)C(=O)N[C@H](C(=O)N[C@@H](CCCNC(=N)N)C(=O)NCC(=O)N[C@@H](CCCNC(=N)N)C(=O)NCC(=O)O)C(C)C)[C@@H](C)CC)C(=O)O [liraglutide] | – |
| – | – | O=C1CC[C@@]2(O)[C@H]3Cc4ccc(O)c5c4[C@@]2(CCN3CC2CC2)[C@H]1O5 [naltrexone] | reduced drinking to a degree comparable to our liraglutide effect |
